Molecular target: T1, L-asparaginase from Z. mobilis (L-AspZ) (Zymomonas mobilis, UniProt Q5NLV3)
T1 construct: gene ZMO1683; first 29 residues (signal peptide) removed; codon-optimised gene in E. coli BL21(DE3): pET26b (pelB, extracellular) or pET28a (cytoplasmic); not purified
Experiment: ammonia release, salicylate-hypochlorite (indophenol) colorimetry
Format: biochemical
Details: sonicated E. coli lysate or concentrated culture medium; 37 °C, pH 7.3, 20 mM sodium phosphate; asparagine stock 5 g/L mixed 1:1; uninduced control tested

T1 sequence (Q5NLV3 entry or part of it): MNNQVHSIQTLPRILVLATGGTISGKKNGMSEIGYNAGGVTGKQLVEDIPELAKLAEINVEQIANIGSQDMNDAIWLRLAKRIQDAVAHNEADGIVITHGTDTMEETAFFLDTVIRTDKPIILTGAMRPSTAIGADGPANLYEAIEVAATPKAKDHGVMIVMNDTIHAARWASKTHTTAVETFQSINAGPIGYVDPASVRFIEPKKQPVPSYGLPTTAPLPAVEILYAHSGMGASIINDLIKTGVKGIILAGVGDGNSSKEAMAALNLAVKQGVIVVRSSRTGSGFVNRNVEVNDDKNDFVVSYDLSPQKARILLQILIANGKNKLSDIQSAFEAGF

NC(=O)C[C@H](N)C(=O)O [asparagine]
ammonia release, salicylate-hypochlorite (indophenol) colorimetry: Enzyme activity was measured by hydrolyzing asparagine to aspartate and ammonia
